From patent publication US11878973B2, “Bicyclic compounds and their uses” (NOVARTIS AG, priority 2021, dated 2024)
Read-outs that look alike come from different tables or passages of the source.

Columns and labels:
WRN helicase = WRN helicase (Homo sapiens (Human), UniProt Q14191); test: In vitro enzymatic activity assay on WRN helicase (DNA dependent ATPase assay, ADP-Glo); assay type: biochemical; details: geometric means of at least 2 determinations; read-out: WRN ATPase Activity (IC50)
Excerpt: An ATPase assay was set up to measure the DNA dependent ATP hydrolysis activity of WRN helicase. This assay was used also to assess the inhibition properties of compounds of the invention on DNA dependent WRN ATPase activity.
The core helicase motif of the WRN protein (aa N517-P1238) was produced for this assay (protein production as described above). […] The ADP-Glo assay kit (Promega, Madison, WI) allowing the quantification of ADP produced in ATP hydrolysis reactions was used for setting up this assay.
Time course experiments were first performed in order to determine the best enzymatic assay conditions (including buffer conditions, reaction time and concentrations of protein, ATP and DNA substrates). A typical reaction consists of 10 nM WRN protein, 0.2 nM FLAP26, and 300 micromolar ATP in the following assay buffer: 30 mM Tris pH7.5, 2 mM MgCl2, 0.02% BSA, 50 mM NaCl, 0.1% pluronic F127 prepared in DNAse free water. To evaluate the inhibition properties of compounds of the invention, serial dilutions were prepared in DMSO (10 half log dilutions from a 10 mM DMSO solution). […] The reaction was started by addition of 2.5 microliters of FLAP26 at 0.4 nM and incubated for 30 minutes at room temperature. The reaction was stopped with the addition of 5 microliters of the first ADP-Glo reagent and incubated for one hour to remove the excess amount of ATP. Afterwards, 10 microliters of ATP detection reagent was added and incubated for an additional hour before reading. Luminescence output was recorded using Tecan 1000 reader, with 5 minutes delay before reading. Each concentration of compound was tested in duplicates in the assay plate.
Following normalization of activity values for the wells to % inhibition (% inhibition=[(high control-sample)/(high control-low control)]×100), IC50 fitting was carried out from the duplicate determinations present on each plate according to [4]. Data analysis can also be carried out using commercially available software designed to derive IC50 values using 4-parameter fits (e.g. GraphPad Prism, XL fit). The reported IC50 values are the geometrical means of at least 2 independent replicates.

SW48 cells = test: Proliferation assay SW48 (CellTiterGlo, 96 hours)
Protocol: The WRN-knockdown insensitive colon carcinoma cell line DLD-1 (RRID: CVCL_0248) was obtained from the Korean Cell Line Bank (KCLB), and used to generate a derivative in which the endogenous WRN gene copies were knocked out by CRISPR-mediated editing using standard CRISPR methods. The resulting cell line, DLD1-WRN—KO, was used to assess potential off-target compound effects.
All cells were maintained at 37° C. in a humidified 5% CO2 incubator.
For data analysis, the assay background signal that was determined in wells containing medium, but no cells, was subtracted from all other data points prior to further calculations. The extent of growth inhibition and potential cell kill was assessed by comparing the ATP levels (measured using CellTiterGlo, Promega) in compound-treated cells with those present at the time of compound addition. […] 100%, 0% and −100% signify absence of growth inhibition, growth stasis, and complete cell kill, respectively. Compound concentrations leading to half-maximal growth inhibition (G150) and residual cell viability at the highest tested compound concentration (Data (cmax), expressed in percent) were routinely calculated. Data analysis can also be carried out using commercially available software designed to derive IC50 values using 4-parameter fits (e.g. GraphPad Prism, XL fit). The reported GI50 values are the geometrical means of at least 2 independent replicates.

DLD1-WRN-KO cells = test: Proliferation assay DLD1-WRN-KO (CellTiterGlo, 96 hours; off-target effects); details: read-out: Proliferation Assay DLD1-WRN-KO (GI50)
[1] = Homo sapiens, SW48, read-out: Proliferation Assay SW48 (GI50)
[2] = read-out: Proliferation Assay SW48 (GI50), SW48 cell line, geometric means of at least 2 determinations
[3] = DLD1-WRN-KO cell line, geometric means of at least 2 determinations

Chain of WRN helicase (Q14191 517-1238): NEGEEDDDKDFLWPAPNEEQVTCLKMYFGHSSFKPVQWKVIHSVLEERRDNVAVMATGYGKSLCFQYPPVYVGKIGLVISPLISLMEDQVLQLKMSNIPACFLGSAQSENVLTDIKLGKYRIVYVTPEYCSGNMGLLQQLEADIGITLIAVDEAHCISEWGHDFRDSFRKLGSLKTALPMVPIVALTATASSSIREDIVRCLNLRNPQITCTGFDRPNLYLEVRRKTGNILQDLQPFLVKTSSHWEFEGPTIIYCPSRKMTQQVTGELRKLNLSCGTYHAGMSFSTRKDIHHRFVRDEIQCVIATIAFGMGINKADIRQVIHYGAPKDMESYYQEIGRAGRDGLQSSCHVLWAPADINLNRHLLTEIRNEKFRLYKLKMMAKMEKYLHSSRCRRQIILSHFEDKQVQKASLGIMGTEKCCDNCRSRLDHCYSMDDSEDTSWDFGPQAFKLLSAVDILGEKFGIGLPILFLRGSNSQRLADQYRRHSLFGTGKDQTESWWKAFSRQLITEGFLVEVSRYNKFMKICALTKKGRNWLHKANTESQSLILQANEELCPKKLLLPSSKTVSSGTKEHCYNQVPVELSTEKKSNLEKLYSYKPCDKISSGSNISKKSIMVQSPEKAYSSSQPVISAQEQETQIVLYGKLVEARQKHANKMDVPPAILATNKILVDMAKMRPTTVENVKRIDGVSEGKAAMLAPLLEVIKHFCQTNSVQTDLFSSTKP

Compound: CCc1c(N2CCN(C(=O)c3ncccc3O)CC2)c(=O)n2nc(C3=CCCOC3)nc2n1CC(=O)Nc1ccc(C(F)(F)F)cc1C [Example 114, 2-(2-(5,6-dihydro-2H-pyran-3-yl)-5-ethyl-6-(4-(3-hydroxypicolinoyl)piperazin-1-yl)-7-oxo-[1,2,4]triazolo[1,5-a]pyrimidin-4(7H)-yl)-N-(2-methyl-4-(trifluoromethyl)phenyl)acetamide]
- IC50 (WRN helicase): 0.09 µM
- GI50 (SW48 cells; [1]): 0.18 µM
- GI50 (DLD1-WRN-KO cells; Homo sapiens): > 10 µM

Compound: CCc1c(N2CCN(C(=O)c3ncnc(C)c3O)CC2)c(=O)n2nc(C3=CCOCC3)nc2n1CC(=O)Nc1ccc(S(F)(F)(F)(F)F)cc1C [Example 100, 2-(2-(3,6-dihydro-2H-pyran-4-yl)-5-ethyl-6-(4-(5-hydroxy-6-methylpyrimidine-4-carbonyl)piperazin-1-yl)-7-oxo-[1,2,4]triazolo[1,5-a]pyrimidin-4(7H)-yl)-N-(2-methyl-4-(pentafluorosulfanyl)phenyl)acetamide]
- IC50 (WRN helicase): 0.06 µM
- GI50 (SW48 cells; [1]): 0.03 µM
- GI50 (DLD1-WRN-KO cells; Homo sapiens): > 10 µM

Compound: CCc1c(N2CCN(C(=O)c3ncccc3O)CC2)c(=O)n2nc(N3CCCC3)nc2n1CC(=O)Nc1cc(Cl)c(C(F)(F)F)cc1C [Example 19, N-(5-chloro-2-methyl-4-(trifluoromethyl)phenyl)-2-(5-ethyl-6-(4-(3-hydroxypicolinoyl)piperazin-1-yl)-7-oxo-2-(pyrrolidin-1-yl)-[1,2,4]triazolo[1,5-a]pyrimidin-4(7H)-yl)acetamide]
- IC50 (WRN helicase): 0.09 µM
- GI50 (SW48 cells; [1]): 0.11 µM
- GI50 (DLD1-WRN-KO cells; Homo sapiens): 5 µM

Compound: CCc1c(N2CCN(C(=O)c3ncnc(C)c3O)CC2)c(=O)n2nc(C3=CCOCC3)nc2n1CC(=O)Nc1ccc(C(F)(F)F)c(F)c1C [Example 93, 2-(2-(3,6-dihydro-2H-pyran-4-yl)-5-ethyl-6-(4-(5-hydroxy-6-methylpyrimidine-4-carbonyl)piperazin-1-yl)-7-oxo-[1,2,4]triazolo[1,5-a]pyrimidin-4(7H)-yl)-N-(3-fluoro-2-methyl-4-(trifluoromethyl)phenyl)acetamide]
- IC50 (WRN helicase): 0.08 µM
- GI50 (SW48 cells; [1]): 0.07 µM
- GI50 (DLD1-WRN-KO cells; Homo sapiens): > 10 µM

Compound: CCc1c(N2CCN(C(=O)c3ncccc3O)CC2)c(=O)n2nc(C3=CCOCC3)nc2n1CC(=O)Nc1cc(F)c(C(F)(F)F)nc1Cl [Example 99, N-(2-chloro-5-fluoro-6-(trifluoromethyl)pyridin-3-yl)-2-(2-(3,6-dihydro-2H-pyran-4-yl)-5-ethyl-6-(4-(3-hydroxypicolinoyl)piperazin-1-yl)-7-oxo-[1,2,4]triazolo[1,5-a]pyrimidin-4(7H)-yl)acetamide]
- IC50 (WRN helicase): 0.18 µM
- GI50 (SW48 cells; [1]): 0.28 µM
- GI50 (DLD1-WRN-KO cells; Homo sapiens): > 10 µM

Compound: CCc1c(N2CCN(C(=O)c3ncnc(C)c3O)[C@@H]3CC[C@@H]32)c(=O)n2nc(C3=CCOCC3)nc2n1CC(=O)Nc1ccc(C(F)(F)F)cc1Cl (single isomer, unassigned) [Example 131]
- IC50 (WRN helicase): 0.11 µM
- GI50 (SW48 cells; [2]): 0.03 µM
- GI50 (DLD1-WRN-KO cells; [3]): > 10 µM

Compound: CCc1c(N2CCN(C(=O)c3ncccc3O)CC2)c(=O)n2nc(C3=CC[C@H](OC)CC3)nc2n1CC(=O)Nc1ccc(C(F)(F)F)cc1 (single isomer, unassigned) [Example 81b, ((R)-2-(5-ethyl-6-(4-(3-hydroxypicolinoyl)piperazin-1-yl)-2-(4-methoxycyclohex-1-en-1-yl)-7-oxo-[1,2,4]triazolo[1,5-a]pyrimidin-4(7H)-yl)-N-(4-(trifluoromethyl)phenyl)acetamide or ((S)-2-(5-ethyl-6-(4-(3-hydroxypicolinoyl)piperazin-1-yl)-2-(4-methoxycyclohex-1-en-1-yl)-7-oxo-[1,2,4]triazolo[1,5-a]pyrimidin-4(7H)-yl)-N-(4-(trifluoromethyl)phenyl)acetamide]
- IC50 (WRN helicase): 0.04 µM
- GI50 (SW48 cells; [2]): 0.06 µM
- GI50 (DLD1-WRN-KO cells; [3]): > 10 µM

Compound: CCc1c(N2CCN(C(=O)c3ncccc3O)CC2)c(=O)n2nc(-c3cccnc3)nc2n1CC(=O)Nc1ccc(C(F)(F)F)cc1C [Example 76, 2-(5-ethyl-6-(4-(3-hydroxypicolinoyl)piperazin-1-yl)-7-oxo-2-(pyridin-3-yl)-[1,2,4]triazolo[1,5-a]pyrimidin-4(7H)-yl)-N-(2-methyl-4-(trifluoromethyl)phenyl)acetamide]
- IC50 (WRN helicase): 0.08 µM
- GI50 (SW48 cells; [1]): 0.19 µM
- GI50 (DLD1-WRN-KO cells; Homo sapiens): > 10 µM

Compound: CCc1c(N2CCN(C(=O)c3nccc(Cl)c3O)CC2)c(=O)n2nc(C3=CC[C@H](OC)CC3)nc2n1CC(=O)Nc1ccc(C(F)(F)F)nc1Cl (single isomer, unassigned) [Example 24a]
- IC50 (WRN helicase): 0.11 µM
- GI50 (SW48 cells; [2]): 0.04 µM
- GI50 (DLD1-WRN-KO cells; [3]): > 10 µM

Compound: CCc1c(N2CCN(C(=O)c3ncnc(C)c3O)[C@@H]3CC[C@H]32)c(=O)n2nc(C3=CCOCC3)nc2n1CC(=O)Nc1ccc(C(F)(F)F)cc1Cl [Example 124, N-(2-chloro-4-(trifluoromethyl)phenyl)-2-(2-(3,6-dihydro-2H-pyran-4-yl)-5-ethyl-6-((1R,6R)-5-(5-hydroxy-6-methylpyrimidine-4-carbonyl)-2,5-diazabicyclo[4.2.0]octan-2-yl)-7-oxo-[1,2,4]triazolo[1,5-a]pyrimidin-4(7H)-yl)acetamide]
- IC50 (WRN helicase): 0.36 µM
- GI50 (SW48 cells; [1]): 0.39 µM
- GI50 (DLD1-WRN-KO cells; Homo sapiens): > 10 µM

Compound: CCc1c(N2CCN(C(=O)c3nccc(Cl)c3O)CC2)c(=O)n2nc(C3=CCCCO3)nc2n1CC(=O)Nc1ccc(C(F)(F)F)nc1C [Example 56, 2-(6-(4-(4-chloro-3-hydroxypicolinoyl)piperazin-1-yl)-2-(3,4-dihydro-2H-pyran-6-yl)-5-ethyl-7-oxo-[1,2,4]triazolo[1,5-a]pyrimidin-4(7H)-yl)-N-(2-methyl-6-(trifluoromethyl)pyridin-3-yl)acetamide]
- IC50 (WRN helicase): 0.16 µM
- GI50 (SW48 cells; [1]): 0.25 µM
- GI50 (DLD1-WRN-KO cells; Homo sapiens): > 10 µM

Compound: CCc1c(N2CCN(C(=O)c3ncccc3O)CC2)c(=O)n2nc(C3=CCOCC3)nc2n1CC(=O)Nc1cc(F)c(C(F)(F)F)cc1Cl [Example 116, N-(2-chloro-5-fluoro-4-(trifluoromethyl)phenyl)-2-(2-(3,6-dihydro-2H-pyran-4-yl)-5-ethyl-6-(4-(3-hydroxypicolinoyl)piperazin-1-yl)-7-oxo-[1,2,4]triazolo[1,5-a]pyrimidin-4(7H)-yl)acetamide]
- IC50 (WRN helicase): 0.06 µM
- GI50 (SW48 cells; [1]): 0.08 µM
- GI50 (DLD1-WRN-KO cells; Homo sapiens): 6.6 µM

Compound: CCc1c(N2CCN(C(=O)c3ncncc3O)CC2)c(=O)n2nc(C3=CCOCC3)nc2n1CC(=O)Nc1ccc(C(F)(F)F)cc1C [Example 64, 2-(2-(3,6-dihydro-2H-pyran-4-yl)-5-ethyl-6-(4-(5-hydroxypyrimidine-4-carbonyl)piperazin-1-yl)-7-oxo-[1,2,4]triazolo[1,5-a]pyrimidin-4(7H)-yl)-N-(2-methyl-4-(trifluoromethyl)phenyl)acetamide]
- IC50 (WRN helicase): 0.09 µM
- GI50 (SW48 cells; [1]): 0.48 µM
- GI50 (DLD1-WRN-KO cells; Homo sapiens): > 10 µM

Compound: CCc1c(N2CCN(C(=O)c3ncccc3O)CC2)c(=O)n2nc(C3=CC[C@H](OC)CC3)nc2n1CC(=O)Nc1ccc(C(F)(F)F)nc1Cl (single isomer, unassigned) [Example 25a, ((R)—N-(2-chloro-6-(trifluoromethyl)pyridin-3-yl)-2-(5-ethyl-6-(4-(3-hydroxypicolinoyl)piperazin-1-yl)-2-(4-methoxycyclohex-1-en-1-yl)-7-oxo-[1,2,4]triazolo[1,5-a]pyrimidin-4(7H)-yl)acetamide) or ((S)—N-(2-chloro-6-(trifluoromethyl)pyridin-3-yl)-2-(5-ethyl-6-(4-(3-hydroxypicolinoyl)piperazin-1-yl)-2-(4-methoxycyclohex-1-en-1-yl)-7-oxo-[1,2,4]triazolo[1,5-a]pyrimidin-4(7H)-yl)acetamide)]
- IC50 (WRN helicase): 0.16 µM
- GI50 (SW48 cells; [2]): 0.05 µM
- GI50 (DLD1-WRN-KO cells; [3]): > 10 µM

Compound: CCc1c(N2CCN(C(=O)c3ncccc3O)CC2)c(=O)n2nc(N3CCOCC3)nc2n1CC(=O)Nc1cc(F)c(C(F)(F)F)cc1C [Example 5, 2-(5-ethyl-6-(4-(3-hydroxypicolinoyl)piperazin-1-yl)-2-morpholino-7-oxo-[1,2,4]triazolo[1,5-a]pyrimidin-4(7H)-yl)-N-(5-fluoro-2-methyl-4-(trifluoromethyl)phenyl)acetamide]
- IC50 (WRN helicase): 0.09 µM
- GI50 (SW48 cells; [1]): 0.12 µM
- GI50 (DLD1-WRN-KO cells; Homo sapiens): > 10 µM

Compound: CCc1c(N2CCN(C(=O)c3nccc(F)c3O)CC2)c(=O)n2nc(C3=CCOCC3)nc2n1CC(=O)Nc1ccc(C(F)(F)F)cc1Cl [Example 40, N-(2-chloro-4-(trifluoromethyl)phenyl)-2-(2-(3,6-dihydro-2H-pyran-4-yl)-5-ethyl-6-(4-(4-fluoro-3-hydroxypicolinoyl)piperazin-1-yl)-7-oxo-[1,2,4]triazolo[1,5-a]pyrimidin-4(7H)-yl)acetamide]
- IC50 (WRN helicase): 0.02 µM
- GI50 (SW48 cells; [1]): 0.03 µM
- GI50 (DLD1-WRN-KO cells; Homo sapiens): > 10 µM
